Test results published in patent publication US5075289A, “9-R-azacyclic erythromycin antibiotics” (priority 1988, dated 1991).
Converted amounts (≈) assume the structure as drawn.

Legend:
Assay type in all cases: cell-based
[1] = test system: Haemophilus influenzae 1177; experiment: In vitro antibacterial activity, agar dilution MIC; conditions: H. influenzae 1177
Description: (§1) The antimicrobial spectra of a number of compounds of the invention were tested by the following method:
(§2) Twelve petri dishes containing successive aqueous dilutions of the test compound mixed with 10 ml of sterilized Brain Heart Infusion agar (Difco 0418-01-5) are prepared. Each plate is inoculated with 1:100 (or 1:10 for slow growing strains, primarily Micrococcus and Streptococcus) dilutions of up to 32 different microorganisms, using a Steers replicator block The inoculated plates are incubated at 35°-37° C. for 20-24 hours. In addition, a control plate, using BHI agar containing no test compound, is prepared and incubated at the beginning and end of each test.
(§3) An additional plate containing a compound having known susceptibility patterns for the organisms being tested and belonging to the same antibiotic class as the test compound is also prepared and incubated as a further control, as well as to provide test-to-test comparability. Erythromycin A was used for this purpose.
(§4) After incubation, each disk is read. The MIC is defined as the lowest concentration of drug yielding no growth, a slight haze, or sparsely isolated colonies on the inoculum spot as compared to the growth control.

[2] = test system: Haemophilus influenzae 667A; experiment: In vitro antibacterial activity, agar dilution MIC; conditions: H. influenzae 667A
Description: as §1, §2, §3, §4

[3] = test system: Haemophilus influenzae DILL AMP R; experiment: In vitro antibacterial activity, agar dilution MIC; conditions: H. influenzae DILL AMP R
Description: as §1, §2, §3, §4

[4] = test system: Haemophilus influenzae 503B; experiment: In vitro antibacterial activity, agar dilution MIC; conditions: H. influenzae 503B
Description: as §1, §2, §3, §4

[5] = test system: Haemophilus influenzae 588A; experiment: In vitro antibacterial activity, agar dilution MIC; conditions: H. influenzae 588A
Description: as §1, §2, §3, §4

[6] = test system: Haemophilus influenzae 751; experiment: In vitro antibacterial activity, agar dilution MIC; conditions: H. influenzae 751
Description: as §1, §2, §3, §4

[7] = test system: Haemophilus influenzae 566A; experiment: In vitro antibacterial activity, agar dilution MIC; conditions: H. influenzae 566A
Description: as §1, §2, §3, §4

[8] = test system: Haemophilus influenzae SPK AMP R; experiment: In vitro antibacterial activity, agar dilution MIC; conditions: H. influenzae SPK AMP R
Description: as §1, §2, §3, §4

[9] = test system: Haemophilus influenzae 504; experiment: In vitro antibacterial activity, agar dilution MIC; conditions: H. influenzae 504
Description: as §1, §2, §3, §4

[10] = test system: Haemophilus influenzae 747C; experiment: In vitro antibacterial activity, agar dilution MIC; conditions: H. influenzae 747C
Description: as §1, §2, §3, §4

[11] = test system: Haemophilus influenzae 519A; experiment: In vitro antibacterial activity, agar dilution MIC; conditions: H. influenzae 519A
Description: as §1, §2, §3, §4

[12] = test system: Haemophilus influenzae 1435; experiment: In vitro antibacterial activity, agar dilution MIC; conditions: H. influenzae 1435
Description: as §1, §2, §3, §4

[13] = test system: Haemophilus influenzae ATCC 9795; experiment: In vitro antibacterial activity, agar dilution MIC; conditions: ATCC9795, H. influenzae ATCC 9795
Description: as §1, §2, §3, §4

[14] = test system: Haemophilus influenzae 632A; experiment: In vitro antibacterial activity, agar dilution MIC; conditions: H. influenzae 632A
Description: as §1, §2, §3, §4

[15] = test system: Haemophilus influenzae SOL AMP R; experiment: In vitro antibacterial activity, agar dilution MIC; conditions: H. influenzae SOL AMP R
Description: as §1, §2, §3, §4

[16] = test system: Haemophilus influenzae ATCC 19418; experiment: In vitro antibacterial activity, agar dilution MIC; conditions: ATCC19418, H. influenzae ATCC 19418
Description: as §1, §2, §3, §4

[17] = test system: Haemophilus influenzae ATCC 10211; experiment: In vitro antibacterial activity, agar dilution MIC; conditions: ATCC10211, H. influenzae ATCC 10211
Description: as §1, §2, §3, §4

[18] = test system: Staphylococcus aureus 642A; experiment: In vitro antibacterial activity, agar dilution MIC; conditions: S. aureus 642A, Brain Heart Infusion agar, 20-24 hours, read-out: MIC
Description: as §1, §2, §3, §4

[19] = test system: Staphylococcus aureus NCTC 10649; experiment: In vitro antibacterial activity, agar dilution MIC; conditions: NCTC10649, S. aureus NCTC 10649, Brain Heart Infusion agar, 20-24 hours, read-out: MIC
Description: as §1, §2, §3, §4

[20] = test system: Escherichia coli Juhl; experiment: In vitro antibacterial activity, agar dilution MIC
Description: as §1, §2, §3, §4

[21] = test system: Streptococcus pyogenes 2548 INDUC; experiment: In vitro antibacterial activity, agar dilution MIC; conditions: 2548INDUC
Description: as §1, §2, §3, §4

[22] = test system: Staphylococcus aureus ATCC 6538P; experiment: In vitro antibacterial activity, agar dilution MIC; conditions: ATCC6538P
Description: as §1, §2, §3, §4

[23] = test system: Streptococcus pyogenes EES61; experiment: In vitro antibacterial activity, agar dilution MIC; conditions: S. pyogenes EES61, Brain Heart Infusion agar, 20-24 hours, read-out: MIC
Description: as §1, §2, §3, §4

[24] = test system: Escherichia coli H560; experiment: In vitro antibacterial activity, agar dilution MIC; conditions: E. coli H560, Brain Heart Infusion agar, 20-24 hours, read-out: MIC
Description: as §1, §2, §3, §4

[25] = test system: Staphylococcus aureus A5177; experiment: In vitro antibacterial activity, agar dilution MIC; conditions: S. aureus A5177, Brain Heart Infusion agar, 20-24 hours, read-out: MIC
Description: as §1, §2, §3, §4

[26] = test system: Staphylococcus aureus CMX 553; experiment: In vitro antibacterial activity, agar dilution MIC; conditions: CMX553, S. aureus CMX 553, Brain Heart Infusion agar, 20-24 hours, read-out: MIC
Description: as §1, §2, §3, §4

[27] = test system: Streptococcus pyogenes 930 CONST; experiment: In vitro antibacterial activity, agar dilution MIC; conditions: 930CONST
Description: as §1, §2, §3, §4

[28] = test system: Escherichia coli SS; experiment: In vitro antibacterial activity, agar dilution MIC; conditions: read-out: MIC
Description: as §1, §2, §3, §4

[29] = test system: Staphylococcus aureus 45; experiment: In vitro antibacterial activity, agar dilution MIC; conditions: S. aureus 45, Brain Heart Infusion agar, 20-24 hours, read-out: MIC
Description: as §1, §2, §3, §4

[30] = test system: Streptococcus bovis A5169; experiment: In vitro antibacterial activity, agar dilution MIC; conditions: read-out: MIC
Description: as §1, §2, §3, §4

[31] = test system: Streptococcus agalactiae CMX 508; experiment: In vitro antibacterial activity, agar dilution MIC; conditions: CMX508, S. agalactiae CMX 508, Brain Heart Infusion agar, 20-24 hours, read-out: MIC
Description: as §1, §2, §3, §4

[32] = test system: Staphylococcus epidermidis 3519; experiment: In vitro antibacterial activity, agar dilution MIC; conditions: S. epidermidis 3519, Brain Heart Infusion agar, 20-24 hours, read-out: MIC
Description: as §1, §2, §3, §4

[33] = test system: Enterococcus faecium ATCC 8043; experiment: In vitro antibacterial activity, agar dilution MIC; conditions: ATCC8043
Description: as §1, §2, §3, §4

[34] = test system: Micrococcus luteus ATCC 4698; experiment: In vitro antibacterial activity, agar dilution MIC; conditions: ATCC4698, read-out: MIC
Description: as §1, §2, §3, §4

[35] = test system: Micrococcus luteus ATCC 9341; experiment: In vitro antibacterial activity, agar dilution MIC; conditions: ATCC9341, M. luteus ATCC 9341, Brain Heart Infusion agar, 20-24 hours, read-out: MIC
Description: as §1, §2, §3, §4

[36] = test system: Escherichia coli DC-2; experiment: In vitro antibacterial activity, agar dilution MIC; conditions: DC2
Description: as §1, §2, §3, §4

[37] = test system: Staphylococcus aureus 45 RAR 2; experiment: microbe, parasite or virus in culture; conditions: 45RAR2
Description: as §1, §2, §3, §4

SMILES | MIC [1] [µg/mL] | MIC [2] [µg/mL] | MIC [3] [µg/mL] | MIC [4] [µg/mL] | MIC [5] [µg/mL] | MIC [6] [µg/mL] | MIC [7] [µg/mL] | MIC [8] [µg/mL] | MIC [9] [µg/mL] | MIC [10] [µg/mL] | MIC [11] [µg/mL] | MIC [12] [µg/mL] | MIC [13] [µg/mL] | MIC [14] [µg/mL] | MIC [15] [µg/mL] | MIC [16] [µg/mL] | MIC [17] [µg/mL] | further results
CC[C@H]1OC(=O)[C@H](C)[C@@H](O[C@H]2C[C@@](C)(OC)[C@@H](O)[C@H](C)O2)[C@H](C)[C@@H](O[C@@H]2O[C@H](C)C[C@H](N(C)C)[C@H]2O)[C@](C)(O)C[C@@H](C)[C@@H](N2CCC(=O)CC2)[C@H](C)[C@@H](O)[C@]1(C)O [Example 28] | 0.25 (≈ 0.306 µM) | 1 (≈ 1.22 µM) | 0.5 (≈ 0.612 µM) | 0.25 (≈ 0.306 µM) | 1 (≈ 1.22 µM) | 2 (≈ 2.45 µM) | 2 (≈ 2.45 µM) | 0.5 (≈ 0.612 µM) | 1 (≈ 1.22 µM) | 0.5 (≈ 0.612 µM) | 0.25 (≈ 0.306 µM) | 0.25 (≈ 0.306 µM) | 1 (≈ 1.22 µM) | 2 (≈ 2.45 µM) | 0.5 (≈ 0.612 µM) | 1 (≈ 1.22 µM) | 5 (≈ 6.12 µM) | 
CC[C@H]1OC(=O)[C@H](C)[C@@H](O[C@H]2C[C@@](C)(OC)[C@@H](O)[C@H](C)O2)[C@H](C)[C@@H](O[C@@H]2O[C@H](C)C[C@H](N(C)C)[C@H]2O)[C@](C)(O)C[C@@H](C)[C@@H](N2CCC(C)CC2)[C@H](C)[C@@H](O)[C@]1(C)O [Example 6] | 0.25 (≈ 0.306 µM) | 2 (≈ 2.45 µM) | 1 (≈ 1.22 µM) | 1 (≈ 1.22 µM) | 1 (≈ 1.22 µM) | 1 (≈ 1.22 µM) | 2 (≈ 2.45 µM) | 1 (≈ 1.22 µM) | 1 (≈ 1.22 µM) | 1 (≈ 1.22 µM) | 0.5 (≈ 0.612 µM) | 1 (≈ 1.22 µM) | 1 (≈ 1.22 µM) | 1 (≈ 1.22 µM) | 1 (≈ 1.22 µM) | 2 (≈ 2.45 µM) | 1 (≈ 1.22 µM) | MIC [18]: 0.39 µg/mL (≈ 0.477 µM); MIC [19]: 0.78 µg/mL (≈ 0.955 µM); MIC [20]: 12.5 µg/mL (≈ 15.3 µM); MIC [21]: 3.1 µg/mL (≈ 3.79 µM); MIC [22]: 0.39 µg/mL (≈ 0.477 µM); MIC [23]: 0.1 µg/mL (≈ 0.122 µM); MIC [24]: 3.1 µg/mL (≈ 3.79 µM); MIC [25]: 3.1 µg/mL (≈ 3.79 µM); MIC [26]: 0.39 µg/mL (≈ 0.477 µM); MIC [27]: > 100 µg/mL; MIC [28]: 0.2 µg/mL (≈ 0.245 µM); MIC [29]: 0.2 µg/mL (≈ 0.245 µM); MIC [30]: 0.02 µg/mL (≈ 0.0245 µM); MIC [31]: 0.1 µg/mL (≈ 0.122 µM); MIC [32]: 0.39 µg/mL (≈ 0.477 µM); MIC [33]: 0.1 µg/mL (≈ 0.122 µM); MIC [34]: 0.2 µg/mL (≈ 0.245 µM); MIC [35]: 0.05 µg/mL (≈ 0.0612 µM); MIC [36]: 25 µg/mL (≈ 30.6 µM); MIC [37]: 0.78 µg/mL (≈ 0.955 µM)
